Assay results taken from patent US20230295159A1, “ATX INHIBITOR, AND PREPARATION METHOD THEREFOR AND USE THEREOF” (SUZHOU ARK BIOPHARMACEUTICAL CO., LTD., priority 2020, published 2023).
Where two headings read alike, the source gives them in different places.

Columns and labels:
ATX enzyme = ATX enzyme (Homo sapiens (Human), UniProt Q13822); assay: ATX enzyme activity inhibition assay; assay type: biochemical; settings: 16:0-LPC substrate, Amplex UltraRed fluorescence
Experimental: The tested compounds were dissolved with dimethyl sulfoxide (DMSO) to prepare 20 mM of stock solutions, the stock solutions were subjected to 4-fold gradient dilutions with DMSO, with the initial concentration of 20 µM and a total of 8 concentration gradients. 20 nL of diluted compound was transferred to a 384-well plate using Echo 550 and 5 µL of ATX enzyme solution formulated with 4 × Tris-HCl reaction buffer to the well, then the 384-well plate was centrifuged at 1000 rpm for 1 min and […] pre-incubated at room temperature for 15 min. Subsequently, 5 µL of 16:0-LPC foumulated with the above 4 × reaction buffer and 10 µL of assay solution containng 2 × Amplex UltraRed reagent, choline oxidase and horseradish peroxidase (HRP) foumulated with the same reaction buffer were added to each well, then the 384-well plate was centrifugated at 1000 rpm for 1 min. The fluorescence signals were read at an excitation wavelength of 530 nm and an emission wavelength of 590 nm by Synergy 2 microplate reader. The inhibition rate of the compound against enzyme reaction was calculated according to the fluorescence intensity ratio, and IC50 of the compound was analysed and calculated by GraphPad Prism 5 software.

[1] = Rat pharmacokinetic study; assay type: in vivo, SD rat; settings: for half-life: read-out: t½ (converted)
Experimental: SD rat pharmacokinetic study was performed on several compounds in Examples of the present disclosure through a single intravenous injection (IV, at a dose of 2 mg/kg) and a single oral administration (PO, at a dose of 10 mg/kg), and blood samples were taken before administration and 5 min, 15 min, 30 min, 1 h, 2 h, 4 h, 8 h, 12 h and 24 h after administration, respectively, to determine the plasma concentration of the compound for assay. The pharmacokinetic data of control compound and the compounds in Examples 17, 26, 28 and 29 of the present disclosure in rat plasma are shown in Tables 4-8.

[2] = test system: Chinese hamster ovary cells (CHO-WBL); assay: In vitro micronucleus assay with Chinese hamster ovary cells
Experimental: In the major micronucleus assay, CHO-WBL cells were exposed to at least 3 concentrations of the test object, while vehicle control group and positive control group were set up, with 2 replicated wells for each dose group. In inactivated test system, the administration lasted for 3 and 24 hours, and in S9 activated test system, the exposure to the test object lasted for 3 hours.
When choosing the highest dose for micronucleus frequency assay, the cytotoxicity of dose group of the test object should not substantially exceed 50% of that of the corresponding vehicle control group.
On the premise that the test is valid, the test results are evaluated according to the following criteria:
If the test object simutaneously meets the following criteria, it can be considered as positive:
A significant increase in micronucleus frequency is observed in one or more concentration groups.
If none of the above three points is met, the test object can be considered as negative.

[3] = 3-hour administration with metabolic activation, 5 µg/ml

Question: Which IC50 (ATX enzyme) does the source give for `CCN(c1nc(-c2ccc(F)cc2)c(C#N)s1)c1c2nc(-c3cnc(N4CCCCS4(=O)=O)nc3)ccc2nn1CC` [Example 21, 2-((5-(2-(1,1-dioxido-1,2-thiazinan-2-yl)pyrimidin-5-yl)-2-ethyl-2H-pyrazolo[4,3-b]pyridin-3-yl)(ethyl)amino)-4-(4-fluorophenyl)thiazole-5-carbonitrile] here?
Answer: The IC50 was 11 nM.

Question: What does the source list for `CCc1nc2c(C)cc(N3CCN(CC(=O)N4CC(O)C4)CC3)cn2c1N(C)c1nc(-c2ccc(F)cc2)c(C#N)s1` [GLPG1690]?
Answer: Cl_F_pred ([1]; IV 2 mg/kg): 7.5 mL/min/kg; Cl_F_pred ([1]; PO 10 mg/kg): 65.5 mL/min/kg; F ([1]; PO 10 mg/kg vs IV 2 mg/kg): 12%; AUC(0-inf) ([1]; SD, plasma, IV 2 mg/kg): 4460 ng·h/mL; AUC(0-t) ([1]; SD, plasma, IV 2 mg/kg): 4460 ng·h/mL; Cmax ([1]; SD, plasma, IV 2 mg/kg): 8340 ng/mL; half-life ([1]; SD, plasma, IV 2 mg/kg): 1.5 h; AUC(0-inf) ([1]; SD, plasma, PO 10 mg/kg): 2700 ng·h/mL; AUC(0-t) ([1]; SD, plasma, PO 10 mg/kg): 2680 ng·h/mL; Cmax ([1]; SD, plasma, PO 10 mg/kg): 512 ng/mL; Tmax ([1]; SD, plasma, PO 10 mg/kg): 1 h; half-life ([1]; SD, plasma, PO 10 mg/kg): 4 h; % binuclear cells containing micronucleus ([2]; 3-hour administration with metabolic activation, 2 µg/ml): 1.55%; % binuclear cells containing micronucleus [2, 3]: 1.65%; % binuclear cells containing micronucleus ([2]; 3-hour administration with metabolic activation, 10 µg/ml): 1.70%; % binuclear cells containing micronucleus ([2]; 3-hour administration with metabolic activation, 30 µg/ml): 1.85%; % binuclear cells containing micronucleus ([2]; 3-hour administration without metabolic activation, 2 µg/ml): 1.90%; % binuclear cells containing micronucleus ([2]; 3-hour administration without metabolic activation, 5 µg/ml): 1.85%; % binuclear cells containing micronucleus ([2]; 3-hour administration without metabolic activation, 10 µg/ml): 1.65%; % binuclear cells containing micronucleus ([2]; 3-hour administration without metabolic activation, 30 µg/ml): 1.85%; % binuclear cells containing micronucleus ([2]; 24-hour administration without metabolic activation, 2 µg/ml): 1.95%; % binuclear cells containing micronucleus ([2]; 24-hour administration without metabolic activation, 4 µg/ml): 1.65%; % binuclear cells containing micronucleus ([2]; 24-hour administration without metabolic activation, 6 µg/ml): 1.60%; % binuclear cells containing micronucleus ([2]; 24-hour administration without metabolic activation, 7 µg/ml): 4.85%; % binuclear cells containing micronucleus ([2]; 24-hour administration without metabolic activation, 8 µg/ml): 14.4%; potential to induce micronucleus formation in CHO-WBL cells ([2]; overall verdict over all administration series): positive

Question: With `CCc1nc2ccc(-c3cnc(N4CCCS4(=O)=O)cn3)cn2c1N(CC)c1nc(-c2ccc(F)cc2)c(C#N)s1` [Example 19, 2-((6-(5-(1,1-dioxidoisothiazolidin-2-yl)pyrazin-2-yl)-2-ethylimidazo[1,2-a]pyridin-3-yl)(ethyl)amino)-4-(4-fluorophenyl)thiazole-5-carbonitrile] as the compound, how does the IC50 (ATX enzyme) read?
Answer: The IC50 was 17 nM.

Question: With `CCc1nc2ccc(-c3cnc(N(C)S(C)(=O)=O)nc3)cn2c1N(CC)c1nc(-c2ccc(F)cc2)c(C#N)s1` [Example 20, N-(5-(3-((5-cyano-4-(4-fluorophenyl)thiazol-2-yl)(ethyl)amino)-2-ethylimidazo[1,2-a]pyridin-6-yl)pyrimidin-2-yl)-N-methylmethanesulfonamide] as the compound, how does the IC50 (ATX enzyme) read?
Answer: The IC50 was 45 nM.

Question: For `CCc1nc2ccc(-c3ccc(CC(=O)N4CC(O)C4)cc3)cn2c1N(C)c1nc(-c2ccc(F)cc2)c(C#N)s1` [Example 1, 2-((2-ethyl-6-(4-(2-(3-hydroxyazetidin-1-yl)-2-oxoethyl)phenyl)imidazo[1,2-a]pyridin-3-yl)(methyl)amino)-4-(4-fluorophenyl)thiazole-5-carbonitrile], which IC50 (ATX enzyme) is on record?
Answer: Its IC50 is 30 nM.

Question: Which IC50 (ATX enzyme) does the source give for `CCc1nc2ccc(-c3cnc(CC(=O)N4CC(O)C4)c(F)c3)cn2c1N(C)c1nc(-c2ccc(F)cc2)c(C#N)s1` [Example 3, 2-((2-ethyl-6-(5-fluoro-6-(2-(3-hydroxyazetidin-1-yl)-2-oxoethyl)pyridin-3-yl)imidazo[1,2-a]pyridin-3-yl)(methyl)amino)-4-(4-fluorophenyl)thiazole-5-carbonitrile] here?
Answer: Its IC50 is 5.2 nM.

Question: For `O=P1(N(CCCl)CCCl)NCCCO1` (centres unmarked) [Cyclophosphamide monohydrate], which “% binuclear cells containing micronucleus” value [2, 3] is on record?
Answer: The value was 20.8%.

Question: For `CCc1nc2ccc(-c3ccc(CC(=O)N4CC(O)C4)cn3)cn2c1N(C)c1nc(-c2ccc(F)cc2)c(C#N)s1` [Example 7, 2-((2-ethyl-6-(5-(2-(3-hydroxyazetidin-1-yl)-2-oxoethyl)pyridin-2-yl)imidazo[1,2-a]pyridin-3-yl)(methyl)amino)-4-(4-fluorophenyl)thiazole-5-carbonitrile], which IC50 (ATX enzyme) is on record?
Answer: The IC50 was 25 nM.

Question: With `CCc1nc2ccc(-c3cnc(C(C)(C)C(=O)N4CC(O)C4)cn3)cn2c1N(C)c1nc(-c2ccc(F)cc2)c(C#N)s1` [Example 9, 2-((2-ethyl-6-(5-(1-(3-hydroxyazetidin-1-yl)-2-methyl-1-oxopropan-2-yl)pyrazin-2-yl)imidazo[1,2-a]pyridin-3-yl)(methyl)amino)-4-(4-fluorophenyl)thiazole-5-carbonitrile] as the compound, how does the IC50 (ATX enzyme) read?
Answer: The IC50 was 28 nM.

Question: For `CCc1nc2ccc(-c3cnc(CC(=O)N4CC(CO)C4)cn3)cn2c1N(C)c1nc(-c2ccc(F)cc2)c(C#N)s1` [Example 12, 2-((2-ethyl-6-(5-(2-(3-(hydroxymethyl)azetidin-1-yl)-2-oxoethyl)pyrazin-2-yl)imidazo[1,2-a]pyridin-3-yl)(methyl)amino)-4-(4-fluorophenyl)thiazole-5-carbonitrile], which IC50 (ATX enzyme) is on record?
Answer: Its IC50 is 19 nM.

Question: For `CCc1nc2ccc(-c3cnc(C(=O)N4CC(O)C4)cn3)cn2c1N(C)c1nc(-c2ccc(F)cc2)c(C#N)s1` [Example 8, 2-((2-ethyl-6-(5-(3-hydroxyazetidin-1-carbonyl)pyrazin-2-yl)imidazo[1,2-a]pyridin-3-yl)(methyl)amino)-4-(4-fluorophenyl)thiazole-5-carbonitrile], which IC50 (ATX enzyme) is on record?
Answer: The IC50 was 4.4 nM.

Question: Which IC50 (ATX enzyme) does the source give for `CCN(c1nc(-c2ccc(F)cc2)c(C#N)s1)c1c2nc(-c3cnc(N4CC(CO)C4)nc3)ccc2nn1CC` [Example 24, 2-(ethyl(2-ethyl-5-(2-(3-(hydroxymethyl)azetidin-1-yl)pyrimidin-5-yl)-2H-pyrazolo[4,3-b]pyridin-3-yl)amino)-4-(4-fluorophenyl)thiazole-5-carbonitrile] here?
Answer: The IC50 was 11 nM.

Question: For `CCc1nc2ccc(-c3cnc(CC(=O)N4CC[C@H](O)C4)cn3)cn2c1N(C)c1nc(-c2ccc(F)cc2)c(C#N)s1` [Example 11, (S)-2-((2-ethyl-6-(5-(2-(3-hydroxypyrrolidin-1-yl)-2-oxoethyl)pyrazin-2-yl)imidazo[1,2-a]pyridin-3-yl)(methyl)amino)-4-(4-fluorophenyl)thiazole-5-carbonitrile], which IC50 (ATX enzyme) is on record?
Answer: The IC50 was 25 nM.

Question: For `CCc1nc2ccc(-c3cnc(C(=O)NC4CC5(CNC5)C4)cn3)cn2c1N(C)c1nc(-c2ccc(F)cc2)c(C#N)s1` [Example 15, 5-(3-((5-cyano-4-(4-fluorophenyl)thiazol-2-yl)(methyl)amino)-2-ethylimidazo[1,2-a]pyridin-6-yl)-N-(2-azaspiro[3.3]heptan-6-yl)pyrazin-2-carboxamide], which IC50 (ATX enzyme) is on record?
Answer: The IC50 was 40 nM.

Question: With `CCc1nc2ccc(-c3ncc(CC(=O)N4CC(O)C4)cc3F)cn2c1N(C)c1nc(-c2ccc(F)cc2)c(C#N)s1` [Example 10, 2-((2-ethyl-6-(3-fluoro-5-(2-(3-hydroxyazetidin-1-yl)-2-oxoethyl)pyridin-2-yl)imidazo[1,2-a]pyridin-3-yl)(methyl)amino)-4-(4-fluorophenyl)thiazole-5-carbonitrile] as the compound, how does the IC50 (ATX enzyme) read?
Answer: The IC50 was 18 nM.

Question: For `CCc1nc2ccc(-c3cnc(CC(=O)NCC4CCC(=O)N4)cn3)cn2c1N(C)c1nc(-c2ccc(F)cc2)c(C#N)s1` (centres unmarked) [Example 14, 2-(5-(3-((5-cyano-4-(4-fluorophenyl)thiazol-2-yl)(methyl)amino)-2-ethylimidazo[1,2-a]pyridin-6-yl)pyrazin-2-yl)-N-((5-oxopyrrolidin-2-yl)methyl)acetamide], which IC50 (ATX enzyme) is on record?
Answer: Its IC50 is 42 nM.

Question: For `CCc1nc2ccc(-c3ccc(CC(=O)N4CC(O)C4)nc3C)cn2c1N(C)c1nc(-c2ccc(F)cc2)c(C#N)s1` [Example 6, 2-((2-ethyl-6-(6-(2-(3-hydroxyazetidin-1-yl)-2-oxoethyl)-2-methylpyridin-3-yl)imidazo[1,2-a]pyridin-3-yl)(methyl)amino)-4-(4-fluorophenyl)thiazole-5-carbonitrile], which IC50 (ATX enzyme) is on record?
Answer: Its IC50 is 29 nM.

Question: Which IC50 (ATX enzyme) does the source give for `CCN(c1nc(-c2ccc(F)cc2)c(C#N)s1)c1c2nc(-c3cnc(N4CC(OC(C)=O)C4)nc3)ccc2nn1CC` [Example 25, 1-(5-(3-((5-cyano-4-(4-fluorophenyl)thiazol-2-yl)(ethyl)amino)-2-ethyl-2H-pyrazolo[4,3-b]pyridin-5-yl)pyrimidin-2-yl)azetidin-3-yl acetate] here?
Answer: The IC50 was 12 nM.

Question: With `CCc1nn2ccc(-c3cnc(N4CCCS4(=O)=O)nc3)nc2c1N(CC)c1nc(-c2ccc(F)cc2)c(C#N)s1` [Example 18, 2-((5-(2-(1,1-dioxidoisothiazolidin-2-yl)pyrimidin-5-yl)-2-ethyl-pyrazolo[1,5-a]pyrimidin-3-yl)(ethyl)amino)-4-(4-fluorophenyl)thiazole-5-carbonitrile] as the compound, how does the IC50 (ATX enzyme) read?
Answer: Its IC50 is 15 nM.
